Legend:
[1] = biological target: T1, GST tagged LXRbeta LBD (ligand binding domain) (Homo sapiens, UniProt P55055); test: LanthaScreen TR-FRET Liver X Receptor Coactivator Assay, LXR beta-LBD (co-activator recruitment; IP and % Emax relative to T0901317); assay type: biochemical; conditions: for EC50: Inflection Point of co-activator recruitment, LXR beta-LBD, TR-FRET; for Emax: read-out: LXR beta actiivty at max dose (%)
T1 construct: purchased Invitrogen pv4658.pps
T1 sequence (P55055 222-460 limits assumed): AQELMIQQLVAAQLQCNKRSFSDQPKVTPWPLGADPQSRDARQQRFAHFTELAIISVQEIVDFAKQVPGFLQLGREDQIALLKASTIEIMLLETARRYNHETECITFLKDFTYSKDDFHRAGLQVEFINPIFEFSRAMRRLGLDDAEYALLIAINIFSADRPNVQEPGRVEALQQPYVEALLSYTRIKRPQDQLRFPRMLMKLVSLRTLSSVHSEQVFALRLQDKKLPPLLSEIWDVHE
In short: (§1)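 LXR LBD protein was added to test compounds, then a mix of fluorescein-labelled coactivator peptide and terbium anti-GST antibody. After incubation at room temperature, TR-FRET was read. Inflection point and Emax were derived relative to the reference dual agonist T0901317.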

[2] = biological target: T2, GST tagged LXRalpha LBD (ligand binding domain) (Homo sapiens, UniProt Q13133); test: LanthaScreen TR-FRET Liver X Receptor Coactivator Assay, LXR alpha-LBD (co-activator recruitment; IP and % Emax relative to T0901317); assay type: biochemical; conditions: for LXR alpha IP (nM) / EC50: Inflection Point of co-activator recruitment, LXR alpha-LBD, TR-FRET; for Emax: read-out: LXR alpha actiivty at max dose (%)
T2 construct: purchased Invitrogen pv4655
T2 sequence (Q13133 209-447 limits assumed): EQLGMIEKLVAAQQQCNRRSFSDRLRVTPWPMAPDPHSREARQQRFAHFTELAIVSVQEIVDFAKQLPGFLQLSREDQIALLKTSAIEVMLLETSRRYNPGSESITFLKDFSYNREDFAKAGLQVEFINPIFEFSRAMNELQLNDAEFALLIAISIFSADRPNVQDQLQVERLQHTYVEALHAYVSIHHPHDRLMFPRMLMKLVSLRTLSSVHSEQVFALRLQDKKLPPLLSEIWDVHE
In short: as §1

[3] = efficacy at max dose in relation to reference T0901317, LXR beta-LBD
[4] = efficacy at max dose in relation to reference T0901317, LXR alpha-LBD

SMILES	EC50 [1]	Emax [1, 3]	LXR alpha IP (nM) [2]	Emax [2, 4]	EC50 [2]	LXR beta actiivty at max dose (%) [1, 3]	LXR alpha actiivty at max dose (%) [2, 4]
CCN(CC)C(=O)c1ccc(N2CCC(CCCN(C)C(=O)[C@](O)(c3cccc(OC)c3)C(F)(F)F)CC2)cc1Cl [Example 4-9, (R)-2-chloro-N,N-diethyl-4-(4-(3-(3,3,3-trifluoro-2-hydroxy-2-(3-methoxyphenyl)-N-methylpropanamido)propyl)piperidin-1-yl)benzamide]	72 nM	40%	No IP	0%			
COc1cccc([C@](O)(C(=O)N(C)C[C@@H]2C[C@@H]2CC2CCN(c3ccc(C(=O)N(C)C)c(Cl)n3)CC2)C(F)(F)F)c1 [Example 18-3, 2-chloro-N,N-dimethyl-6-(4-(((1S,2R)-2-(((S)-3,3,3-trifluoro-2-hydroxy-2-(3-methoxyphenyl)-N-methylpropanamido)methyl)cyclopropyl)methyl)piperidin-1-yl)nicotinamide]	518 nM	25%	No IP	0%			
COc1cccc([C@@](O)(C(=O)N(C)CCCC2(C)CCN(c3ccc(C(=O)N(C)C)c(Cl)c3)CC2)C(F)(F)F)c1 [Example 9-6, (R)-2-chloro-N,N-dimethyl-4-(4-methyl-4-(3-(3,3,3-trifluoro-2-hydroxy-2-(3-methoxyphenyl)-N-methylpropanamido)propyl)piper-idin-1-yl)benzamide]	136 nM	20%	No IP	0%			
CN(C)C(=O)c1ccc(N2CCC(CCCN(C)C(=O)[C@](O)(c3cc(F)cc(Cl)c3)C(F)(F)F)CC2)nc1Cl [Example 1-12, (R)-2-chloro-6-(4-(3-(2-(3-chloro-5-fluorophenyl)-3,3,3-trifluoro-2-hydroxy-N-methylpropanamido)propyl)piperidin-1-yl)-N,N-dimethylnicotinamide]	13 nM	78%		23%	372 nM		
CN(C)C(=O)c1ccc(N2CCC(CCCNC(=O)[C@@](O)(c3ccccc3)C(F)(F)F)CC2)nc1Cl [Example 5-9, (S)-2-chloro-N,N-dimethyl-6-(4-(3-(3,3,3-trifluoro-2-hydroxy-2-phenylpropanamido)propyl)piperidin-1-yl) nicotinamide]	165 nM	101%		9%	2280 nM		
CC(C)C(O)(C(=O)NCCCC1CCN(c2ccc(C(=O)N(C)C)c(Cl)n2)CC1)C(F)(F)F (centres unmarked) [Example 5-7, 2-chloro-6-(4-(3-(2-hydroxy-3-methyl-2-(trifluoromethyl)butanamido)propyl)piperidin-1-yl)-N,N-dimethylnicotinamide]	636 nM	106%	No IP	27%			
COc1cccc([C@@](O)(C(=O)N(C)CCCC2CCN(c3ccc(C(N)=O)c(Cl)n3)CC2)C(F)(F)F)c1 [Example 2-16, (R)-2-chloro-6-(4-(3-(3,3,3-trifluoro-2-hydroxy-2-(3-methoxyphenyl)-N-methylpropanamido)propyl)piperidin-1-yl)nicotinamide]	296 nM	54%	No IP	12%			
COc1cccc([C@@](O)(C(=O)N(C)CC[C@@H]2CC23CCN(c2ccc(C(=O)NC(C)C)c(Cl)c2)CC3)C(F)(F)F)c1 [Example 7-23, 2-chloro-N-isopropyl-4-((S)-1-(2-((R)-3,3,3-trifluoro-2-hydroxy-2-(3-methoxyphenyl)-N-methylpropanamido)ethyl)-6-azaspiro[2.5]octan-6-yl)benzamide]	2070 nM	32%	No IP	7%			
CN(C)C(=O)c1ccc(N2CCC(CCCNC(=O)C3(c4ccccc4)CCC3)CC2)nc1Cl [Example 5-16, 2-chloro-N,N-dimethyl-6-(4-(3-(1-phenylcyclobutane-carboxamido)propyl)piperidin-1-yl)nicotinamide]	235 nM	83%		26%	5220 nM		
COc1cccc([C@@](O)(C(=O)N(C)CCCC2CCN(c3ccc(C(=O)N4CC(NC(=O)OC(C)(C)C)C4)c(Cl)n3)CC2)C(F)(F)F)c1 [Example 2-9, (R)-tert-butyl 1-(2-chloro-6-(4-(3-(3,3,3-trifluoro-2-hydroxy-2-(3-methoxyphenyl)-N-methylpropanamido)propyl)piperidin-1-yl)nicotinoyl) azetidin-3-ylcarbamate]	9 nM	65%		45%	164 nM		
CN(C)C(=O)c1ccc(N2CCC(CCCN(C)C(=O)[C@]3(c4ccccc4)CCOC3)CC2)nc1Cl [Example 1-54, (S)-2-chloro-N,N-dimethyl-6-(4-(3-(N-methyl-3-phenyltetrahydrofuran-3-carboxamido)propyl)piperidin-1-yl)nicotinamide]	579 nM	49%	No IP	15%			
COc1cccc([C@@](O)(C(=O)N(C)CCCC2CCN(c3ccc(C(=O)N(C)C(C)C)c(Cl)n3)CC2)C(F)(F)F)c1 [Example 2-4, (R)-2-chloro-N-isopropyl-N-methyl-6-(4-(3-(3,3,3-trifluoro-2-hydroxy-2-(3-methoxyphenyl)-N-methylpropanamido)propyl)piperidin-1-yl)nicotinamide]	24 nM	61%	No IP	0%			
CN(C)C(=O)c1ccc(N2CCC(CCCNC(=O)C(O)(c3ccccc3)C(F)(F)F)CC2)nc1Cl (centres unmarked) [Example 5-6, 2-chloro-N,N-dimethyl-6-(4-(3-(3,3,3-trifluoro-2-hydroxy-2-phenylpropanamido)propyl)piperidin-1-yl)nicotinamide]	267 nM	105%		23%	3700 nM		
CN(C)C(=O)c1ccc(N2CCC([C@@H]3C[C@H]3CNC(=O)[C@@](O)(c3ccccc3)C(F)(F)F)CC2)cc1Cl [Example 15-18, 2-chloro-N,N-dimethyl-4-(4-((1S,2R)-2-(((S)-3,3,3-trifluoro-2-hydroxy-2-phenylpropanamido)methyl)cyclopropyl)piperidin-1-yl)benzamide]	763 nM		No IP			66%	8%
COc1cccc([C@@](O)(C(=O)NC[C@H](C)CC2CCN(c3ccc(C(=O)N(C)C)c(Cl)n3)CC2)C(F)(F)F)c1 [Example 3-5]	156 nM	57%		22%	2890 nM		
CN(C)C(=O)c1ccc(N2CCC3(CC2)CC3CCN(C)C(=O)[C@@](O)(c2ccccc2)C(F)(F)F)cc1Cl (stereo partly drawn) [Example 7-1, 2-chloro-N,N-dimethyl-4-(1-(2-((S)-3,3,3-trifluoro-2-hydroxy-N-methyl-2-phenylpropanamido)ethyl)-6-azaspiro[2.5]octan-6-yl)benzamide]	342 nM	54%		10%	4090 nM		
CC(C)N(C)C(=O)c1ccc(N2CCC3(CC2)C[C@@H]3CCN(C)C(=O)[C@](O)(c2ccccc2)C(F)(F)F)cc1Cl [Example 7-13, 2-chloro-N-isopropyl-N-methyl-4-((R)-1-(2-((R)-3,3,3-trifluoro-2-hydroxy-N-methyl-2-phenylpropanamido)ethyl)-6-azaspiro[2.5]octan-6-yl)benzamide]	14 nM	55%		32%	158 nM		
COc1cccc([C@@](O)(C(=O)NC[C@@H]2C[C@@H]2C2CCN(c3ccc(C(=O)N(C)C)c(Cl)n3)CC2)C(F)(F)F)c1 [Example 15-10, 2-chloro-N,N-dimethyl-6-(4-((1R,2R)-2-(((R)-3,3,3-trifluoro-2-hydroxy-2-(3-methoxyphenyl)propanamido)methyl)cyclopropyl)piperidin-1-yl)nicotinamide]	442 nM	38%	No IP	4%			
CNC(=O)c1ccc(N2CCC3(CC2)C[C@@H]3CCN(C)C(=O)[C@](O)(c2cccc(OC)c2)C(F)(F)F)cc1Cl [Example 7-8, 2-chloro-N-methyl-4-((R)-1-(2-((R)-3,3,3-trifluoro-2-hydroxy-2-(3-methoxyphenyl)-N-methylpropanamido)ethyl)-6-azaspiro[2.5]octan-6-yl)benzamide]	82 nM	56%		33%	1270 nM		
CN(C)C(=O)c1ccc(N2CCC(CCCN(C)C(=O)[C@](O)(c3cccc(C4CC4)c3)C(F)(F)F)CC2)cc1Cl [Example 4-3, (R)-2-chloro-4-(4-(3-(2-(3-cyclopropylphenyl)-3,3,3-trifluoro-2-hydroxy-N-methylpropanamido)propyl)piperidin-1-yl)-N,N-dimethylbenzamide]	67 nM	53%	No IP	0%			

— patent US10961215B2, “N-aryl and N-heteroaryl piperidine derivatives as liver X receptor beta agonists, compositions, and their use” (Merck Sharp & Dohme Corp., priority 2016, dated 2021)
